Laboratory results as given in PubChem BioAssay AID1919010 (Molecular Pharmacology Branch, DTP, NCI, 2023).

System: Hs578T complex spheroid growth, percent test/control
Test: Anticancer human tumor Hs578T cell line growth inhibition [AhR];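 further: luminescent viability signal as a proxy for spheroid growth; spheroids exposed to agents for one week after three days of growth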
Conditions: for IC50: curve of first compound; for viability, T/C: stronger effect = lower value
Outline: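 Complex tumor spheroids co-cultured with HUVEC and human MSC stroma; AhR antagonists tested in combination with standard-of-care and investigational agents. Top concentration at or near clinical Cmax (else 10 microM), half-log dilutions; growth expressed as percent test/control.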

[1] = second compound 0.1 µM, first compound 0.000949 µM
[2] = second compound 0.1 µM, first compound 0.003 µM
[3] = second compound 0.1 µM, first compound 0.00949 µM
[4] = second compound 0.1 µM, first compound 0.03 µM
[5] = second compound 0.1 µM, first compound 0.0949 µM
[6] = second compound 0.1 µM, first compound 0.3 µM
[7] = second compound 0.316 µM, first compound 0.000949 µM
[8] = second compound 0.316 µM, first compound 0.003 µM
[9] = second compound 0.316 µM, first compound 0.00949 µM
[10] = second compound 0.316 µM, first compound 0.03 µM
[11] = second compound 0.316 µM, first compound 0.0949 µM
[12] = second compound 0.316 µM, first compound 0.3 µM
[13] = second compound 1 µM, first compound 0.000949 µM
[14] = second compound 1 µM, first compound 0.003 µM
[15] = second compound 1 µM, first compound 0.00949 µM
[16] = second compound 1 µM, first compound 0.03 µM
[17] = second compound 1 µM, first compound 0.0949 µM
[18] = second compound 1 µM, first compound 0.3 µM
[19] = second compound 3.16 µM, first compound 0.000949 µM
[20] = second compound 3.16 µM, first compound 0.003 µM
[21] = second compound 3.16 µM, first compound 0.00949 µM
[22] = second compound 3.16 µM, first compound 0.03 µM
[23] = second compound 3.16 µM, first compound 0.0949 µM
[24] = second compound 3.16 µM, first compound 0.3 µM
[25] = second compound 10 µM, first compound 0.000949 µM
[26] = second compound 10 µM, first compound 0.003 µM
[27] = second compound 10 µM, first compound 0.00949 µM
[28] = second compound 10 µM, first compound 0.03 µM
[29] = second compound 10 µM, first compound 0.0949 µM
[30] = second compound 10 µM, first compound 0.3 µM
[31] = second compound 0.1 µM, first compound 0.0316 µM
[32] = second compound 0.1 µM, first compound 0.1 µM
[33] = second compound 0.1 µM, first compound 0.316 µM
[34] = second compound 0.1 µM, first compound 1 µM
[35] = second compound 0.1 µM, first compound 3.16 µM
[36] = second compound 0.1 µM, first compound 10 µM
[37] = second compound 0.316 µM, first compound 0.0316 µM
[38] = second compound 0.316 µM, first compound 0.1 µM
[39] = second compound 0.316 µM, first compound 0.316 µM
[40] = second compound 0.316 µM, first compound 1 µM
[41] = second compound 0.316 µM, first compound 3.16 µM
[42] = second compound 0.316 µM, first compound 10 µM
[43] = second compound 1 µM, first compound 0.0316 µM
[44] = second compound 1 µM, first compound 0.1 µM
[45] = second compound 1 µM, first compound 0.316 µM
[46] = second compound 1 µM, first compound 1 µM
[47] = second compound 1 µM, first compound 3.16 µM
[48] = second compound 1 µM, first compound 10 µM
[49] = second compound 3.16 µM, first compound 0.0316 µM
[50] = second compound 3.16 µM, first compound 0.1 µM
[51] = second compound 3.16 µM, first compound 0.316 µM
[52] = second compound 3.16 µM, first compound 1 µM
[53] = second compound 3.16 µM, first compound 3.16 µM
[54] = second compound 3.16 µM, first compound 10 µM
[55] = second compound 10 µM, first compound 0.0316 µM
[56] = second compound 10 µM, first compound 0.1 µM
[57] = second compound 10 µM, first compound 0.316 µM
[58] = second compound 10 µM, first compound 1 µM
[59] = second compound 10 µM, first compound 3.16 µM
[60] = second compound 10 µM, first compound 10 µM

Compound: CC(C)CC(NC(=O)C(Cc1ccccc1)NC(=O)c1cnccn1)B(O)O (stereo not given) + Cc1cncc(-c2nc(NCCc3c[nH]c4ccccc34)c3ncn(C(C)C)c3n2)c1
- IC50 (second compound 0.1 µM): 7 nM
- IC50 (second compound 0.316 µM): 6.66 nM
- IC50 (second compound 1 µM): 5.92 nM
- IC50 (second compound 3.16 µM): 3.77 nM
- IC50 (second compound 10 µM): < 0.949 nM
- viability, T/C [1]: 101%
- viability, T/C [2]: 101%
- viability, T/C [3]: 31.8%
- viability, T/C [4]: 0.32%
- viability, T/C [5]: 0.25%
- viability, T/C [6]: 0.36%
- viability, T/C [7]: 112%
- viability, T/C [8]: 101%
- viability, T/C [9]: 27.3%
- viability, T/C [10]: 0.39%
- viability, T/C [11]: 0.31%
- viability, T/C [12]: 0.31%
- viability, T/C [13]: 97.8%
- viability, T/C [14]: 86.5%
- viability, T/C [15]: 24.8%
- viability, T/C [16]: 0.28%
- viability, T/C [17]: 0.19%
- viability, T/C [18]: 0.29%
- viability, T/C [19]: 69.4%
- viability, T/C [20]: 58%
- viability, T/C [21]: 17.3%
- viability, T/C [22]: 0.24%
- viability, T/C [23]: 0.24%
- viability, T/C [24]: 0.28%
- viability, T/C [25]: 5.56%
- viability, T/C [26]: 6.44%
- viability, T/C [27]: 1.16%
- viability, T/C [28]: 0.57%
- viability, T/C [29]: 0.26%
- viability, T/C [30]: 0.36%

Compound: CCc1c2c(nc3ccc(O)cc13)-c1cc3c(c(=O)n1C2)COC(=O)[C@]3(O)CC + Cc1cncc(-c2nc(NCCc3c[nH]c4ccccc34)c3ncn(C(C)C)c3n2)c1
- IC50 (second compound 0.1 µM): 136 nM
- IC50 (second compound 0.316 µM): 197 nM
- IC50 (second compound 1 µM): 115 nM
- IC50 (second compound 3.16 µM): < 0.949 nM
- IC50 (second compound 10 µM): < 0.949 nM
- viability, T/C [1]: 74.8%
- viability, T/C [2]: 78.7%
- viability, T/C [3]: 74.4%
- viability, T/C [4]: 64.6%
- viability, T/C [5]: 53.9%
- viability, T/C [6]: 43.1%
- viability, T/C [7]: 83.5%
- viability, T/C [8]: 78.6%
- viability, T/C [9]: 80.2%
- viability, T/C [10]: 70.4%
- viability, T/C [11]: 61.2%
- viability, T/C [12]: 43.7%
- viability, T/C [13]: 77.7%
- viability, T/C [14]: 67.1%
- viability, T/C [15]: 68.2%
- viability, T/C [16]: 59.7%
- viability, T/C [17]: 52.1%
- viability, T/C [18]: 41.8%
- viability, T/C [19]: 38.9%
- viability, T/C [20]: 42.9%
- viability, T/C [21]: 38.7%
- viability, T/C [22]: 29%
- viability, T/C [23]: 18.2%
- viability, T/C [24]: 13.8%
- viability, T/C [25]: 4.74%
- viability, T/C [26]: 3.51%
- viability, T/C [27]: 4.95%
- viability, T/C [28]: 2.72%
- viability, T/C [29]: 1.85%
- viability, T/C [30]: 1%

Compound: Nc1ccccc1NC(=O)c1ccc(CNC(=O)OCc2cccnc2)cc1 + Cc1cncc(-c2nc(NCCc3c[nH]c4ccccc34)c3ncn(C(C)C)c3n2)c1
- IC50 (second compound 0.1 µM): 1980 nM
- IC50 (second compound 0.316 µM): 2150 nM
- IC50 (second compound 1 µM): 1820 nM
- IC50 (second compound 3.16 µM): 460 nM
- IC50 (second compound 10 µM): < 31.6 nM
- viability, T/C [31]: 118%
- viability, T/C [32]: 115%
- viability, T/C [33]: 115%
- viability, T/C [34]: 80.9%
- viability, T/C [35]: 28.6%
- viability, T/C [36]: 2.58%
- viability, T/C [37]: 126%
- viability, T/C [38]: 116%
- viability, T/C [39]: 116%
- viability, T/C [40]: 87.5%
- viability, T/C [41]: 30.9%
- viability, T/C [42]: 2.84%
- viability, T/C [43]: 109%
- viability, T/C [44]: 106%
- viability, T/C [45]: 107%
- viability, T/C [46]: 76.5%
- viability, T/C [47]: 25.1%
- viability, T/C [48]: 2.17%
- viability, T/C [49]: 72%
- viability, T/C [50]: 69.9%
- viability, T/C [51]: 55.5%
- viability, T/C [52]: 36.5%
- viability, T/C [53]: 10.7%
- viability, T/C [54]: 0.49%
- viability, T/C [55]: 4.97%
- viability, T/C [56]: 4.48%
- viability, T/C [57]: 2.94%
- viability, T/C [58]: 3.5%
- viability, T/C [59]: 0.48%
- viability, T/C [60]: 0.4%

Compound: O=C(c1cc(Cc2n[nH]c(=O)c3ccccc23)ccc1F)N1CCN(C(=O)C2CC2)CC1 + Cc1cncc(-c2nc(NCCc3c[nH]c4ccccc34)c3ncn(C(C)C)c3n2)c1
- IC50 (second compound 0.1 µM): > 10000 nM
- IC50 (second compound 0.316 µM): > 10000 nM
- IC50 (second compound 1 µM): > 10000 nM
- IC50 (second compound 3.16 µM): > 10000 nM
- IC50 (second compound 10 µM): < 31.6 nM
- viability, T/C [31]: 122%
- viability, T/C [32]: 120%
- viability, T/C [33]: 119%
- viability, T/C [34]: 114%
- viability, T/C [35]: 103%
- viability, T/C [36]: 94.8%
- viability, T/C [37]: 116%
- viability, T/C [38]: 118%
- viability, T/C [39]: 132%
- viability, T/C [40]: 131%
- viability, T/C [41]: 114%
- viability, T/C [42]: 107%
- viability, T/C [43]: 107%
- viability, T/C [44]: 117%
- viability, T/C [45]: 122%
- viability, T/C [46]: 105%
- viability, T/C [47]: 103%
- viability, T/C [48]: 97.7%
- viability, T/C [49]: 74.7%
- viability, T/C [50]: 68.6%
- viability, T/C [51]: 77.9%
- viability, T/C [52]: 60.3%
- viability, T/C [53]: 55.9%
- viability, T/C [54]: 69.2%
- viability, T/C [55]: 7.27%
- viability, T/C [56]: 8.04%
- viability, T/C [57]: 6.95%
- viability, T/C [58]: 6.36%
- viability, T/C [59]: 5.59%
- viability, T/C [60]: 7.04%
